Results published in patent publication EP3364964B1, “COMPOSITION BASED ON DIHYDROMYRICETIN AND A ZINC SALT FOR THE TREATMENT OF ACNE AND OILY SKIN” (Thorel, Jean-Noël, priority 2015, dated 2017).
“And” between values parts separate entries of the source, which are not always exact repeats. Identical values can stand only once.

Experiments:
[1] = Protection of squalene against oxidation induced by hydrogen peroxide (GC/MS of non-oxidised squalene); conditions: H2O2 6%, 1 h; for Squalène Moyenne: mean; for Squalène (µg/ml): single trials (Essai)
Excerpt: L'objectif de ce test est d'évaluer l'inhibition par la DHM de l'oxydation du squalène, induite par le peroxyde d'hydrogène (H2O2). Le Trolox (6-Hydroxy-2,5,7,8-tétraméthylchroman-2-carboxylic acid), un équivalent hydrosoluble de la vitamine E, est un antioxydant connu et est utilisé dans ces tests en tant que témoin positif.
Le squalène (Sigma Aldrich) est dans un premier temps solubilisé dans une chambre réactionnelle.
L'oxydation du squalène est induite par l'ajout d'une solution de peroxyde d'hydrogène (H2O2 à une concentration finale de 6%).
Les actifs devant être évalués sont ajoutés au mélange réactionnel. Ainsi, le Trolox à 0,8% en poids est utilisé comme témoin positif de la protection contre l'oxydation du squalène.
Un contrôle positif, correspondant au squalène incubé en présence d'H2O2, et un contrôle négatif, correspondant au squalène non exposé à l'H2O2, sont également réalisés.
Le mélange obtenu est mis sous agitation pendant une heure, à température ambiante et à l'abri de la lumière.
Le squalène est ensuite extrait du milieu réactionnel à l'aide d'une extraction liquide/liquide. Après évaporation de la solution organique, le résidu est solubilisé dans une solution de chloroforme et le squalène est analysé par une méthode de chromatographie GC/MS.
La mesure de la concentration en squalène permet d'estimer la quantité de squalène ayant été oxydée au cours de la réaction. En effet et selon la technique de mesure utilisée, seule la forme non oxydée est détectée.

[2] = system: lignée de sébocytes humains SEB0662; assay: MTT cell viability / cytotoxicity test in sebocytes; format: cell-based
Description: (§1) Dans cette étude, on utilise la lignée de sébocytes humains SEB0662.
(§2) Les cellules sont cultivées dans le milieu de culture classique des sébocytes, à 37°C et en présence de 5% de CO2. Les cellules sont utilisées au 7^ème passage.
La sélection des doses d'actifs est réalisée grâce à un test de viabilité cellulaire au MTT. On retient les doses qui permettent de maintenir une viabilité supérieure à 90%.
L'erreur standard de la moyenne (esm) représente l'écart de ln moyenne de l'échantillon par rapport à la moyenne de la population. L'esm est calculée en divisant l'écart-type (Sd) par la racine carrée de la taille de l'échantillon (sqrt(n)). Erreur standard de la moyenne(esm) = écart-type(Sd)/sqrt(n) [formula] Pourcentage de viabilité: viabilité(%) = (DOcomposé/DOtémoin) × 100 [formula] Pourcentage de stimulation: Stimulation(%) = [(Valeur/moyennedutémoin)×100]−100 [formula] Pourcentage de d'inhibition: Inhibition(%) = 100−[(Valeur/moyennedutémoin)×100] [formula]

[3] = system: collagénase issue de Clostridium histolyticum; assay: Anti-collagenase activity, MMP-1 kit, in tubo fluorescence test; format: biochemical
Excerpt: L'activité anti-collagénase est mesurée grâce au kit MMP-1 (Molecular Probes; Réf E12055). Le principe est basé sur la capacité d'une enzyme de la famille des MMP (« Marix Metallo-Proteinase ») zinc-dépendantes, en l'occurrence la collagénase issue de Clostridium histolyticum, à hydrolyser son substrat (collagène-I) pour donner des composés fluorescents mesurables.
En présence d'un inhibiteur, l'action de l'enzyme est altérée empêchant l'hydrolyse de son substrat. La 1,10 phénanthroline est utilisée comme le témoin positif d'inhibition de l'enzyme. La fluorescence émise à 535 nm est mesurée après excitation à 485 nm.
La 1,10-phenanthroline monohydrate (10mM), un inhibiteur connu des MMP fourni dans le kit, est utilisée comme contrôle positif.
Les contrôles négatifs suivants ont été réalisés : • Témoin H2O : ce témoin a été utilisé pour solubiliser la 1-10-phenantroline monohydrate; il représente arbitrairement 100% d'activité de l'enzyme par rapport aux résultats obtenus avec ce contrôle. • Témoin solvant (DMSO 1%) : quantité de solvant inclus dans l'ensemble des actifs et associations à tester; il représente arbitrairement 100% d'activité de l'enzyme par rapport aux résultats obtenus avec les actifs et associations testés.
Le gluconate de zinc a été testé à la concentration de 0,1% (en poids).
La DHM a été testée aux concentrations suivantes : 0,002% et 0,05% (en poids). L'association gluconate de zinc 0,1% + DHM 0,002% a également été testée.
Les analyses quantitatives sont exprimées sous forme de moyenne ± l'écart type. La significativité statistique est déterminée par un test de Student. Les différences sont considérées comme statistiquement significatives entre l'actif testé et son témoin solvant à partir de p<0.05. (NS : […]).

sébocytes SEB0662 = assay: IGF-1 induced lipid synthesis in sebocytes (Bodipy lipid droplet labelling, 14 days); format: cell-based, humains; conditions: 0,001%, IGF-1 20 ng/ml
Description: La présente étude vise à étudier l'effet de la DHM et/ou du gluconate de zinc (Zn) sur l'inhibition de la synthèse des lipides, induite par l'ajout d'IGF-1, dans les sébocytes. Cet effet est suivi par marquage, à l'aide d'une sonde lipidique fluorescente couplée au Bodipy®, des sébocytes SEB0662 cultivés en monocouche pendant 14 jours en milieu de différenciation (supplémenté en IGF-1 à 20 ng/ml).
as §1, §2
Pour l'évaluation des actifs, un milieu dit de différenciation (milieu de culture classique supplémenté en dihydrotestostérone, albumine bovine sérique, acide linoléïque, glucose, sérum de veau fœtal, hydrocortisone et agonistes des PPAR (« Peroxysome Proliferator Activated Receptor »)), complémenté en IGF-1 à 20 ng/ml, est utilisé. L'ajout d'IGF-1 stimule la production de lipides par les sébocytes. […]
Les marquages sont quantifiés par mesure de l'intensité de fluorescence de la sonde rapportée au nombre de noyaux identifiés par le Hoechst (intégration des données numériques par le logiciel Developer Toolbox 1 .5, GE Healthcare). […]

[4] = system: Propionibacterium acnes ATCC 69.19; assay: Growth inhibition of P. acnes, micromethod of Lens-Lisbonne et al. (MIC); format: cell-based; conditions: first concentration with growth <= 20 %, 36° C, 3 to 5 days, anaerobic
Excerpt: L'objet de cette étude est d'évaluer l'activité inhibitrice de composés vis-à-vis de la souche Propionibacterium acnes selon les principes de la méthode décrite par Lens-Lisbonne et al. (1987).
La méthode de Lens-Lisbonne et al. permet de tester en milieu liquide le pouvoir antibactérien de substances faiblement solubles et/ou très volatiles, et permet d'éviter les méthodes par diffusion ou en phase vapeur. Brièvement, elle consiste à mettre en présence des volumes égaux de produit à tester et de milieu inoculé, à différentes concentrations. […] L'activité inhibitrice est évaluée à partir des mesures d'absorbance du mélange, comparées aux conditions contrôle. […]
Après incubation de la microplaque pendant une durée définie, la densité optique à 620 nm est mesurée. Les résultats sont exprimés en pourcentage de croissance calculé par rapport à un témoin de croissance et un témoin d'absorbance selon l'équation suivante: Pourcentage de croissance = (DOmesuréeduproduitàlaconcentrationC−DOmesuréedutémoind'absorbanceproduitàlaconcentrationC)/DO mesurée témoin de croissance [formula] […]
Le test est effectué sur microplaque 96 puits. En synthèse, 30 puits sont utilisés pour les témoins d'absorbance; 30 puits sont utilisés pour les essais. […]

With `Cc1c(C)c2c(c(C)c1O)CCC(C)(C(=O)O)O2` (stereo not drawn) [Trolox, 6-Hydroxy-2,5,7,8-tétraméthylchroman-2-carboxylic acid, reference compound] the “Indice de protection (%)” value ([1]; 0,8 % en poids) was 42,94%, the “Squalène Moyenne” value ([1]; 0,8 % en poids) was 31,85 µg/ml and the “Squalène (µg/ml)” value ([1]; 0,8 % en poids) was 31,41 µg/ml and 31,88 µg/ml and 32,25 µg/ml and 34,60 µg/ml and 32,49 µg/ml.
In the case of `O=C1c2c(O)cc(O)cc2O[C@H](c2cc(O)c(O)c(O)c2)[C@H]1O` [DHM, (2R,3R)-3,5,7-trihydroxy-2-(3,4,5-trihydroxyphenyl)-2,3-dihydrochromen-4-one], the “Indice de protection (%)” value ([1]; 0,01 % en poids) is reported as 35,19%, the “Squalène Moyenne” value ([1]; 0,01 % en poids) is reported as 26,10 µg/ml and the “Squalène (µg/ml)” value ([1]; 0,01 % en poids) is reported as 27,01 µg/ml and 24,86 µg/ml and 26,42 µg/ml. The “Indice de protection (%)” value ([1]; 0,05 % en poids) was 45,28%, the “Squalène Moyenne” value ([1]; 0,05 % en poids) was 33,58 µg/ml and the “Squalène (µg/ml)” value ([1]; 0,05 % en poids) was 34,44 µg/ml and 32,88 µg/ml and 33,41 µg/ml. The “Indice de protection (%)” value ([1]; 0,005 % en poids) was 28,64%, the “Squalène Moyenne” value ([1]; 0,005 % en poids) was 21,24 µg/ml and the “Squalène (µg/ml)” value ([1]; 0,005 % en poids) was 19,84 µg/ml and 21,37 µg/ml and 22,51 µg/ml. The effet cytotoxique ([2]; tested up to 0,003%) was “ne montre pas d'effet cytotoxique”, the “inhibition de l'activité collagénase” value ([3]; 0,05% en poids, versus DMSO 1% control) was 30,1% and the “inhibition de l'activité collagénase” value ([3]; 0,002% en poids, versus DMSO 1% control) was 3,5%.
For `O.c1cnc2c(c1)ccc1cccnc12` [1-10-phénanthroline monohydrate, 1,10-phenanthroline monohydrate, reference compound], the “inhibition de l'activité collagénase” value ([3]; 10mM, versus H2O control) was 79,6%.
In the case of gluconate de zinc [reference compound], the cytotoxicité ([2]; 0,001%) is reported as “ne présente pas de cytotoxicité”, the “inhibition de la synthèse des lipides induite par l'IGF-1” value (sébocytes SEB0662) is reported as ~15% and the “inhibition de l'activité collagénase” value ([3]; 0,1% en poids, versus DMSO 1% control) is reported as 80,2%. For the same compound, the “CMI microméthode (%-m/v)” value ([4]; Test 1) was 0,05 %-m/v and the “CMI microméthode (%-m/v)” value ([4]; Test 2) was 0,05 %-m/v.
